Experiments:
FXa = settings: Figure 4, design basis; no reference given; cited from earlier work
human FIIa = biological target: T1, human FIIa (Homo sapiens, UniProt P00734); test: Thrombin inhibition in vitro (chromogenic substrate CS-01(38)); format: biochemical; settings: tested 10 μM to 100 μM
T1 construct: purchased Hyphen BioMed, Paris, France
Procedure: The inhibition of thrombin was measured using human FIIa (Hyphen BioMed, Paris, France) and chromogenic substrate CS-01(38) (Hyphen BioMed, Paris, France) in 384-well microtiter plates at room temperature. […] 2 μL of FIIa (3 NIH/mL), 20 μL of Tris buffer (adjust to pH 7.4 with HCl) containing 0.3 M NaCl and 50 mM Tris and 2 μL of test compound were added to the well, respectively. The negative control was composed of the same mixed solutions except replacing test compound with DMSO. The positive control was composed of the same mixed solutions except replacing test compound with Rivaroxaban. After incubated at 37 °C for 5 min, 3 μL of FIIa substrate solution (4 mM) was added and then incubated at 37 °C for 25 min. The FIIa activity was measured at 405 nm using a SpectraMax M5 (Molecular Devices).

human FXa = biological target: T2, human FXa (Homo sapiens, UniProt P00742); test: Inhibition of FXa in vitro (chromogenic substrate CS-11(22)); format: biochemical; settings: for Ki: Km = 2.4; for IC50: chromogenic substrate, 37 °C, pH 7.4
T2 construct: purchased Hyphen BioMed, Paris, France
Procedure: The inhibition of FXa was measured using human FXa (Hyphen BioMed, Paris, France) and chromogenic substrate CS-11(22) (Hyphen BioMed, Paris, France) in 384-well microtiter plates at room temperature. […] 2 μL of FXa (56.8 nM), 16 μL of Tris buffer (adjust to pH 7.4 with HCl containing 0.3 M NaCl and 50 mM Tris) and 3 μL of test compound were added to the well, respectively. The negative control was composed of the same mixed solutions except replacing test compound with DMSO. […] After incubated at 37 °C for 5 min, 8 μL of FXa substrate solution (3.5 mM) was added and then incubated at 37 °C for 25 min. The FXa activity was measured at 405 nm using a SpectraMax M5 (Molecular Devices, Sunnyvale, CA, USA). The IC50 was calculated by the software named SPSS (IBM, North Castle, NY, USA) and the Probit function in it.

rat plasma = test: Prothrombin time (PT) assay in rat plasma; format: biochemical; settings: concentration doubling prothrombin time
Procedure: (§1) A commercially available automatic coagulometer (Steellex Science Instrument Co., Ltd., Beijing, China) was employed to measure PT. The clotting times were also measured using the instrument itself, in accordance with the manufacturer’s instructions. Increasing concentrations of inhibitor or solvent were added to rat (Sprague-Dawley rats, Shanchuanhong Experimental Animals Co., Ltd., Tianjin, China) and human plasma and incubated for 3 min at 37 °C. Prothrombin time (PT) was determined by automatic coagulometer.

human plasma = test: Prothrombin time (PT) assay in human plasma; format: biochemical; settings: concentration doubling prothrombin time
Procedure: as §1

thrombin = tested on: thrombin; parameters: method as in PMID 16305517; settings: read-out: selectivity against thrombin (IC50); cited from earlier work

T2 sequence (P00742 235-488 limits assumed): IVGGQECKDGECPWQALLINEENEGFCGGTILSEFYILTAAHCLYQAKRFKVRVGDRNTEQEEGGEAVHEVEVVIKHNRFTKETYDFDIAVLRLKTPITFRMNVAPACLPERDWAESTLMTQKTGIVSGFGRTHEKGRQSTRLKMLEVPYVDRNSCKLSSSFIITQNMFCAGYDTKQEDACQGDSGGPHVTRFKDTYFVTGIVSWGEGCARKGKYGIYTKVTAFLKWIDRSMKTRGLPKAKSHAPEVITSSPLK
T2 sequence (P00742 41-179 partner limits assumed): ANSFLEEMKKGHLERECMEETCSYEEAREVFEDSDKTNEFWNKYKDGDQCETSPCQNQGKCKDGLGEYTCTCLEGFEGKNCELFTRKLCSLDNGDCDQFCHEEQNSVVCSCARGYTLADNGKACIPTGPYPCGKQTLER

Row | SMILES | IC50 (human FXa) | also measured
2 | O=C(Nc1ccccc1C(=O)Nc1ccc(-n2ccccc2=O)cc1)c1ccc(Cl)s1 [Compound 1a, 5-Chloro-N-(2-((4-(2-oxopyridin-1(2H)-yl)phenyl)carbamoyl)phenyl)thiophene-2-carboxamide] | 30.2 nM | IC50 (human FIIa): > 10000 nM; Ki (human FXa): 22 nM
3 | O=C(Nc1ccccc1C(=O)Nc1ccc(-n2ccccc2=O)cc1)c1ccc(F)cc1 [Compound 1b, 2-(4-Fluorobenzamido)-N-(4-(2-oxopyridin-1(2H)-yl)phenyl)benzamide] | > 1000 nM | –
4 | O=C(Nc1ccccc1C(=O)Nc1ccc(-n2ccccc2=O)cc1)c1ccc(Cl)cc1 [Compound 1c, 2-(4-Chlorobenzamido)-N-(4-(2-oxopyridin-1(2H)-yl)phenyl)benzamide] | 197 nM | –
5 | O=C(Nc1ccc(Cl)cc1C(=O)Nc1ccc(-n2ccccc2=O)cc1)c1ccc(Cl)s1 [Compound 1d, 5-Chloro-N-(4-chloro-2-((4-(2-oxopyridin-1(2H)-yl)phenyl)carbamoyl)phenyl)thiophene-2-carboxamide] | 430 nM | –
6 | O=C(Nc1ccc(Cl)cc1C(=O)Nc1ccc(-n2ccccc2=O)cc1)c1ccc(F)cc1 [Compound 1e, 5-Chloro-2-(4-fluorobenzamido)-N-(4-(2-oxopyridin-1(2H)-yl)phenyl)benzamide] | > 1000 nM | –
7 | O=C(Nc1ccc(Cl)cc1C(=O)Nc1ccc(-n2ccccc2=O)cc1)c1ccc(Cl)cc1 [Compound 1f, 5-Chloro-2-(4-chlorobenzamido)-N-(4-(2-oxopyridin-1(2H)-yl)phenyl)benzamide] | 570 nM | –
8 | Cc1ccc(NC(=O)c2ccc(Cl)s2)c(C(=O)Nc2ccc(-n3ccccc3=O)cc2)c1 [Compound 1g, 5-Chloro-N-(4-methyl-2-((4-(2-oxopyridin-1(2H)-yl)phenyl)carbamoyl)phenyl)thiophene-2-carboxami-de] | 25 nM | IC50 (human FIIa): > 10000 nM; 2 × PT (μM) (Rat) (rat plasma): 19.7 µM; Ki (human FXa): 16.4 nM; 2 × PT (μM) (Human) (human plasma): 12.8 µM
9 | Cc1ccc(NC(=O)c2ccc(F)cc2)c(C(=O)Nc2ccc(-n3ccccc3=O)cc2)c1 [Compound 1h, 2-(4-Fluorobenzamido)-5-methyl-N-(4-(2-oxopyridin-1(2H)-yl)phenyl)benzamide] | > 1000 nM | –
10 | Cc1ccc(NC(=O)c2ccc(Cl)cc2)c(C(=O)Nc2ccc(-n3ccccc3=O)cc2)c1 [Compound 1i, 2-(4-Chlorobenzamido)-5-methyl-N-(4-(2-oxopyridin-1(2H)-yl)phenyl)benzamide] | 511 nM | –
11 | Cc1cccc(C(=O)Nc2ccc(-n3ccccc3=O)cc2)c1NC(=O)c1ccc(Cl)s1 [Compound 1j, 5-Chloro-N-(2-methyl-6-((4-(2-oxopyridin-1(2H)-yl)phenyl)carbamoyl)phenyl)thiophene-2-carboxami-de] | > 1000 nM | –
12 | Cc1cccc(C(=O)Nc2ccc(-n3ccccc3=O)cc2)c1NC(=O)c1ccc(F)cc1 [Compound 1k, 2-(4-Fluorobenzamido)-3-methyl-N-(4-(2-oxopyridin-1(2H)-yl)phenyl)benzamide] | > 1000 nM | –
13 | Cc1cccc(C(=O)Nc2ccc(-n3ccccc3=O)cc2)c1NC(=O)c1ccc(Cl)cc1 [Compound 1l, 2-(4-Chlorobenzamido)-3-methyl-N-(4-(2-oxopyridin-1(2H)-yl)phenyl)benzamide] | > 1000 nM | –
14 | O=C(Nc1ccccc1C(=O)Nc1ccc(N2CCOCC2=O)cc1)c1ccc(Cl)s1 [Compound 1m, 5-Chloro-N-(2-((4-(3-oxomorpholino)phenyl)carbamoyl)phenyl)thiophene-2-carboxamide] | 317 nM | –
15 | O=C(Nc1ccccc1C(=O)Nc1ccc(N2CCOCC2=O)cc1)c1ccc(F)cc1 [Compound 1n, 2-(4-Fluorobenzamido)-N-(4-(3-oxomorpholino)phenyl)benzamide] | > 1000 nM | –
16 | O=C(Nc1ccccc1C(=O)Nc1ccc(N2CCOCC2=O)cc1)c1ccc(Cl)cc1 [Compound 1o, 2-(4-Chlorobenzamido)-N-(4-(3-oxomorpholino)phenyl)benzamide] | 440 nM | –
17 | O=C(Nc1ccc(Cl)cc1C(=O)Nc1ccc(N2CCOCC2=O)cc1)c1ccc(Cl)s1 [Compound 1p, 5-Chloro-N-(4-chloro-2-((4-(3-oxomorpholino)phenyl)carbamoyl)phenyl)thiophene-2-carboxamide] | 111 nM | –
18 | O=C(Nc1ccc(Cl)cc1C(=O)Nc1ccc(N2CCOCC2=O)cc1)c1ccc(F)cc1 [Compound 1q, 5-Chloro-2-(4-fluorobenzamido)-N-(4-(3-oxomorpholino)phenyl)benzamide] | > 1000 nM | –
19 | O=C(Nc1ccc(Cl)cc1C(=O)Nc1ccc(N2CCOCC2=O)cc1)c1ccc(Cl)cc1 [Compound 1r, 5-Chloro-2-(4-chlorobenzamido)-N-(4-(3-oxomorpholino)phenyl)benzamide] | 951 nM | –
20 | Cc1ccc(NC(=O)c2ccc(Cl)s2)c(C(=O)Nc2ccc(N3CCOCC3=O)cc2)c1 [Compound 1s, 5-Chloro-N-(4-methyl-2-((4-(3-oxomorpholino)phenyl)carbamoyl)phenyl)thiophene-2-carboxamide] | 71 nM | IC50 (human FIIa): > 10000 nM; 2 × PT (μM) (Rat) (rat plasma): 24.2 µM; Ki (human FXa): 54.4 nM; 2 × PT (μM) (Human) (human plasma): 10.4 µM
21 | Cc1ccc(NC(=O)c2ccc(F)cc2)c(C(=O)Nc2ccc(N3CCOCC3=O)cc2)c1 [Compound 1t, 2-(4-Fluorobenzamido)-5-methyl-N-(4-(3-oxomorpholino)phenyl)benzamide] | > 1000 nM | –
22 | Cc1ccc(NC(=O)c2ccc(Cl)cc2)c(C(=O)Nc2ccc(N3CCOCC3=O)cc2)c1 [Compound 1u, 2-(4-Chlorobenzamido)-5-methyl-N-(4-(3-oxomorpholino)phenyl)benzamide] | > 1000 nM | –
23 | Cc1cccc(C(=O)Nc2ccc(N3CCOCC3=O)cc2)c1NC(=O)c1ccc(Cl)s1 [Compound 1v, 5-Chloro-N-(2-methyl-6-((4-(3-oxomorpholino)phenyl)carbamoyl)phenyl)thiophene-2-carboxamide] | > 1000 nM | –
24 | Cc1cccc(C(=O)Nc2ccc(N3CCOCC3=O)cc2)c1NC(=O)c1ccc(F)cc1 [Compound 1w, 2-(4-Fluorobenzamido)-3-methyl-N-(4-(3-oxomorpholino)phenyl)benzamide] | > 1000 nM | –
25 | Cc1cccc(C(=O)Nc2ccc(N3CCOCC3=O)cc2)c1NC(=O)c1ccc(Cl)cc1 [Compound 1x, 2-(4-Chlorobenzamido)-3-methyl-N-(4-(3-oxomorpholino)phenyl)benzamide] | > 1000 nM | –
26 | COc1ccc(C(=O)Nc2cccc(O)c2NC(=O)c2ccc(N3CCCN(C)CC3)cc2)cc1 [Darexaban] | – | IC50 (FXa): 54.6 nM
27 | O=C(NC[C@H]1CN(c2ccc(N3CCOCC3=O)cc2)C(=O)O1)c1ccc(Cl)s1 [Rivaroxaban, reference compound] | – | 2 × PT (μM) (Rat) (rat plasma): 0.3 µM; IC50 (FXa): […]; 2 × PT (μM) (Human) (human plasma): 0.2 µM; IC50 (thrombin): > 6900 nM

Reference: article PMC6274369, “Novel Anthranilamide-Based FXa Inhibitors: Drug Design, Synthesis and Biological Evaluation” (Molecules, 2016)
